We go through 6 compounds from ChEMBL document CHEMBL1201862, “PubChem BioAssay data set” (2004).

Assay in all cases: inhibition of tumour cell growth, NCI panel, 48 h
The subject of test [1] is KM12.
Test [2] concerns UO-31.
Test [3] deals with SK-MEL-2.
Test [4] relates to A549.
The subject of test [5] is SK-MEL-5.
The subject of test [6] is HOP-92.
In test [7] the test system is NCI-H522.
Test [8] relates to SK-MEL-28.
The subject of test [9] is NCI-H460.
The test system of test [10] is EKVX.
Test [11] deals with SW-620.
The subject of test [12] is 786-0.
For test [13], the system named is BT-549.
The subject of test [14] is OVCAR-3.
Test [15] deals with OVCAR-4.
Test [16] deals with PC-3.
The test system of test [17] is MOLT-4.
Test [18] has as its system SN12C.
In test [19] the test system is RPMI-8226.
In test [20] the test system is COLO 205.

Values joined by “and” are separate entries in the source; they are usually repeats but may differ in a detail not shown here. Equal values may be shown once.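 Protocol summary: plate cells (96-well), add compound at 5 concentrations, incubate 48 h, interpolate endpoints linearly. GI50 = concentration required for 50% inhibition of growth.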 Active and inactive are the calls of the source. Cut-off read from the data, not from the text of the source: active = GI50 up to about 1.1 µM and inactive = higher. Peptide text beside a SMILES is read from it. * marks the point of attachment. Cbz = O=C(OCc1ccccc1)*

`CC(Cc1ccc(O)c(O)c1)C(C)Cc1ccc(O)c(O)c1` (stereo not given) [NORDIHYDROGUAIARETIC ACID]: the GI50 in test [1] is 17.1 µM (inactive); in test [2], 9.55 µM (inactive); in test [3], 18.5 µM (inactive); in test [4] it was 33 µM (inactive); in test [5], 16.8 µM (inactive); in test [6], 3.14 µM (inactive). Further, the GI50 in test [7] was 2.03 µM (inactive); in test [8], 16.2 µM (inactive); in [9], 16.7 µM (inactive); in test [10], 23.4 µM (inactive); in [11] it was 18.9 µM (inactive); in [12] it was 17.2 µM (inactive). For the same compound, the GI50 in test [13] is 13.9 µM (inactive); in [14] it was 13.7 µM (inactive); in test [15], 14.4 µM (inactive); in test [16], 21.9 µM (inactive); in test [17], 8.22 µM (inactive); in test [18] it was > 36.7 µM (inactive). Also, the GI50 in test [19] was 10.1 µM (inactive); in test [20] it was 18.7 µM (inactive).
In the case of `COC(=O)C1OC(O[C@H]2CC[C@]3(C)[C@H]4CC=C5[C@@H]6CC(C)(C)CC[C@]6(C(=O)OC6OCC(O)C(O)C6OC6OC(C)C(OC7OCC(O)C(O)C7O)C(O)C6O)CC[C@@]5(C)[C@]4(C)CC[C@H]3C2(C)C)C(O)C(O)C1O` (stereo not given in full), the GI50 in [1] was 15.6 µM (inactive) and 16.2 µM (inactive); in test [2] it was 13.2 µM (inactive) and 18.9 µM (inactive); in test [3], 19.7 µM (inactive) and 17.6 µM (inactive); in test [4], 16.9 µM (inactive) and 19.5 µM (inactive); in test [5], 17.9 µM (inactive) and 17.8 µM (inactive); in [6], 16.4 µM (inactive) and 19.9 µM (inactive). The GI50 in [7] is 16.1 µM (inactive) and 16.4 µM (inactive); in test [8] it was 14.4 µM (inactive) and 16.6 µM (inactive); in test [9], 34.5 µM (inactive) and 20 µM (inactive); in test [10], 17.1 µM (inactive); in test [11], 19.6 µM (inactive) and 21.9 µM (inactive); in test [12] it was 15.7 µM (inactive) and 17.5 µM (inactive). The GI50 in test [13] was 18.7 µM (inactive) and 19.9 µM (inactive); in test [14], 39.5 µM (inactive) and 42.8 µM (inactive); in [15], 15.8 µM (inactive) and 12.7 µM (inactive); in test [16], 14.4 µM (inactive) and 15.8 µM (inactive); in test [17], 19.3 µM (inactive) and 18.1 µM (inactive); in test [18] it was 13.4 µM (inactive) and 16.4 µM (inactive). Besides, the GI50 was 23.9 µM (inactive) and 18.8 µM (inactive) in [19]; 13.1 µM (inactive) and 16.9 µM (inactive) in [20].
Turning to `O=C1N/C(=N/N=C/c2cccs2)N/C1=C\c1ccco1`, the GI50 in test [1] was 34 µM (inactive); in test [2] it was > 100 µM (inactive); in test [3] it was 7.29 µM (inactive); in test [4], 33.7 µM (inactive); in [5] it was 24.3 µM (inactive); in [6] it was > 100 µM (inactive). The GI50 in test [7] was 7.98 µM (inactive); in test [8], 76.9 µM (inactive); in test [9] it was 23.2 µM (inactive); in [10], > 100 µM (inactive); in [11] it was 30.4 µM (inactive); in [12], 51.6 µM (inactive). Also, the GI50 in test [13] is 70 µM (inactive); in test [14], 22.5 µM (inactive); in test [15], > 100 µM (inactive); in test [16] it was 18.9 µM (inactive); in [17], > 100 µM (inactive); in test [18], 43.8 µM (inactive). Also, the values for the GI50 in test [19] and in test [20] were 23.7 µM (inactive) and 35.5 µM (inactive), respectively.
As for `O=C(O)CCC(NC(=O)OCc1ccccc1)C(=O)NC(Cc1c[nH]cn1)C(=O)O` (stereo not drawn) (Cbz-Glu-His-OH; configuration not given here), the GI50 in [1], in test [2], in [3], in test [4], in [5] and in test [6] was > 100 µM (inactive) each time. The GI50 in [7], in [8], in test [9], in test [10], in test [11] and in [12] was > 100 µM (inactive) throughout. Moreover, the GI50 in [13], in test [14], in test [15], in [16], in test [17] and in [18] was > 100 µM (inactive) throughout. Besides, the GI50 in test [19] and in test [20] was > 100 µM (inactive) in each case.
As to `Cc1ccc(-c2nnc(-c3ccc4ccccc4c3)o2)cc1`, the GI50 in [1] was > 100 µM (inactive); in [2] it was 15.1 µM (inactive); in test [3], 2.92 µM (inactive); in test [4], > 100 µM (inactive); in test [5] it was > 96.2 µM (inactive); in [6], > 51.6 µM (inactive). Besides, the GI50 in test [7] is 69.7 µM (inactive); in test [8], 33.3 µM (inactive); in test [9], 83 µM (inactive); in [10], 40.2 µM (inactive); in test [11], 20 µM (inactive); in test [12], 11.9 µM (inactive). Besides, the GI50 in test [13] is 13.7 µM (inactive); in test [14] it was 99.1 µM (inactive); in test [15], 40.3 µM (inactive); in [16], 52.2 µM (inactive); in test [17], 3.13 µM (inactive); in test [18], 14.6 µM (inactive). Moreover, the GI50 was 6.78 µM (inactive) in [19] and > 100 µM (inactive) in test [20].
As to `COCC([C@@H](O)C(O)C(=O)NCC[C@@H](C)c1nc(/C=C/CC2OC3(C[C@H](O)C2C)OC(C(C[C@H](O)C(C)[C@H](O)C(C)/C=C(C)/C(C)=C/C=C/C(C)=C/C#N)OC)[C@@H](OP(=O)(O)O)C3(C)C)co1)N(C)C` (stereo not given in full), the GI50 in test [1] is 0.000184 µM (active); in test [2], 0.00118 µM (active); in [3] it was 0.000188 µM (active); in test [4], 0.0004 µM (active); in test [5], 0.000159 µM (active); in [6] it was 0.000175 µM (active). The GI50 is 0.000167 µM (active) in [7]; 0.000184 µM (active) in test [8]; 0.000139 µM (active) in test [9]; 0.000172 µM (active) in test [10]; 0.000182 µM (active) in test [11]; 0.000176 µM (active) in test [12]. Moreover, the GI50 was 0.000167 µM (active) in [13]; 0.000186 µM (active) in [14]; 0.00137 µM (active) in test [15]; 0.000179 µM (active) in test [16]; 0.00082 µM (active) in [17]; 0.000179 µM (active) in test [18]. In addition, the GI50 is 0.000272 µM (active) in test [19] and 0.000171 µM (active) in [20].
